Values quoted from earlier work as cited in PMC4791274, “Cerdulatinib, a novel dual SYK/JAK kinase inhibitor, has broad anti-tumor activity in both ABC and GCB types of diffuse large B cell lymphoma” (Oncotarget, 2015).

Columns and labels:
R/R patients (DLBCL) = tested on: R/R patients (DLBCL); parameters: method as in PMID 17389337; details: number of patients, in 55 R/R patients; cited from earlier work
DLBCL patients = details: available clinical data; cited from earlier work
R/R DLBCL = tested on: R/R DLBCL; parameters: method as in PMID 26193343; details: phase II, 80 R/R DLBCL; cited from earlier work
DLBCL cells = details: cited from earlier work
[1] = tested on: relapsed/refractory (R/R) DLBCL patients; parameters: method as in PMID 19965662; details: 5 of 23 R/R DLBCL patients, phase I/II; cited from earlier work
LY3 cell line = tested on: LY3 cell line; parameters: method as in PMID 22025527; details: cited from earlier work
LY4 cell line = tested on: LY4 cell line; parameters: method as in PMID 22025527; details: LY4, lacks surface immunoglobulins; cited from earlier work
DHL2 cell line = tested on: DHL2 cell line; parameters: method as in PMID 22025527; details: cited from earlier work

## Cn1cc(C2=C(c3cn(C4CCN(Cc5ccccn5)CC4)c4ccccc34)C(=O)NC2=O)c2ccccc21 [Enzastaurin]
R/R patients (DLBCL)
  complete responses: 3
  stable disease: 1
DLBCL patients
  fraction of DLBCL patients in whom active: ≤ 20%

## C=CC(=O)N1CCC[C@@H](n2nc(-c3ccc(Oc4ccccc4)cc3)c3c(N)ncnc32)C1 [ibrutinib]
R/R DLBCL
  response rate of all DLBCL tumors: 19%
  responsive tumors, ABC subtype: 37%
  responsive tumors, GCB subtype: 5%

## Cc1nc(Nc2ncc(C(=O)Nc3c(C)cccc3Cl)s2)cc(N2CCN(CCO)CC2)n1 [dasatinib]
DLBCL cells
  impact on cell viability: minimal impact on cell viability

## COc1cc(Nc2ncc(F)c(Nc3ccc4c(n3)N(COP(=O)(O)O)C(=O)C(C)(C)O4)n2)cc(OC)c1OC [Fostamatinib]
[1]
  objective response: 22%
DLBCL patients
  fraction of DLBCL patients in whom active: ≤ 20%

## Cc1cccc(Nc2nc(N[C@@H]3CCCC[C@@H]3N)ncc2C(N)=O)c1 [PRT060318]
DLBCL cells
  impact on cell viability: minimal impact on cell viability
LY3 cell line
  sensitivity to SYK selective inhibitor: insensitive
LY4 cell line
  sensitivity to selective SYK inhibition: resistant
DHL2 cell line
  sensitivity to SYK selective inhibitor: insensitive
